The source of these data is the supplement of paper PMC10307832.

Holding throughout (experiment): relative viability (nuclei count vs DMSO), 5 days (fraction); higher = more cells survive
Compound in experiment [1]: CC(=O)c1c(C)c2cnc(Nc3ccc(N4CCNCC4)cn3)nc2n(C2CCCC2)c1=O [Palbociclib] + O=C(c1cc(Cc2n[nH]c(=O)c3ccccc23)ccc1F)N1CCN(C(=O)C2CC2)CC1 [Olaparib] (partner 8 µM)
The essentials:
(§1)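 Lung cancer cell lines were seeded in 1536-well plates and dosed by pin tool the next day, with either a single drug or a fixed anchor-drug dose combined with five library-drug doses (not always all listed) spaced in √10 steps. Five days later, one step fixed the cells and stained their nuclei (final 0.05% Triton X-100, 1% formaldehyde, 1 ug/ml Hoechst), and nuclei were counted on 4× images. Relative viability is the nuclei count in treated wells divided by the count in vehicle wells, and each value is the median of duplicate plates.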

Compound in experiment [2]: CC(=O)c1c(C)c2cnc(Nc3ccc(N4CCNCC4)cn3)nc2n(C2CCCC2)c1=O [Palbociclib] + Nc1nc2[nH]cc(CCc3ccc(C(=O)N[C@@H](CCC(=O)O)C(=O)O)cc3)c2c(=O)[nH]1 [Pemetrexed] (partner 0.2 µM)
The method in brief:
as §1

Compound in experiment [3]: CC(=O)c1c(C)c2cnc(Nc3ccc(N4CCNCC4)cn3)nc2n(C2CCCC2)c1=O [Palbociclib] + COc1cccc2cc(-c3nc([C@H]4CC[C@H](C(=O)O)CC4)n4ncnc(N)c34)[nH]c12 [OSI-027] (partner 0.5 µM)
The essentials:
as §1

Compound in experiment [4]: CC(=O)c1c(C)c2cnc(Nc3ccc(N4CCNCC4)cn3)nc2n(C2CCCC2)c1=O [Palbociclib] + C[C@]1(O)C[C@@H](c2nc(-c3ccc4ccc(-c5ccccc5)nc4c3)c3c(N)nccn32)C1 [Linsitinib] (partner 1 µM)
The method in brief: as §1

As to COR-L 105, the relative viability in experiment [1] (first compound 0.01 µM) was 0.711; in experiment [1] (first compound 0.03162 µM), 0.552; in experiment [1] (first compound 0.1 µM) it was 0.564; in experiment [1] (first compound 0.3162 µM) it was 0.475; in experiment [1] (first compound 1 µM) it was 0.432; in experiment [2] (first compound 0.01 µM), 1.21. The relative viability is 0.802 in experiment [2] (first compound 0.03162 µM); 0.778 in experiment [2] (first compound 0.1 µM); 0.697 in experiment [2] (first compound 0.3162 µM); 0.47 in experiment [2] (first compound 1 µM); 0.676 in experiment [3] (first compound 0.01 µM); 0.506 in experiment [3] (first compound 0.03162 µM). Moreover, the relative viability in experiment [3] (first compound 0.1 µM) is 0.453; in experiment [3] (first compound 0.3162 µM) it was 0.429; in experiment [3] (first compound 1 µM), 0.336; in experiment [4] (first compound 0.01 µM), 0.987; in experiment [4] (first compound 0.03162 µM) it was 0.91; in experiment [4] (first compound 0.1 µM), 0.509. For the same cell line, the relative viability in experiment [4] (first compound 0.3162 µM) is 0.571; in experiment [4] (first compound 1 µM), 0.429.

For the cell line Calu-6, the relative viability came out at 0.612 in experiment [1] (first compound 0.01 µM); 0.549 in experiment [1] (first compound 0.03162 µM); 0.511 in experiment [1] (first compound 0.1 µM); 0.528 in experiment [1] (first compound 0.3162 µM); 0.417 in experiment [1] (first compound 1 µM); 0.982 in experiment [4] (first compound 0.01 µM). Moreover, the relative viability in experiment [4] (first compound 0.03162 µM) stood at 0.921; in experiment [4] (first compound 0.1 µM) it was 0.784; in experiment [4] (first compound 0.3162 µM) it was 0.746; in experiment [4] (first compound 1 µM) it was 0.578.

Consider ChaGo-K-1, for which the relative viability in experiment [1] (first compound 0.01 µM) was 0.423; in experiment [1] (first compound 0.1 µM) it was 0.437; in experiment [1] (first compound 0.3162 µM) it was 0.467; in experiment [1] (first compound 1 µM) it was 0.444; in experiment [2] (first compound 0.01 µM), 0.259; in experiment [2] (first compound 0.1 µM), 0.261. In addition, the relative viability was found to be 0.257 in experiment [2] (first compound 0.3162 µM); 0.26 in experiment [2] (first compound 1 µM); 0.594 in experiment [3] (first compound 0.01 µM); 0.396 in experiment [3] (first compound 0.03162 µM); 0.661 in experiment [3] (first compound 0.1 µM); 0.563 in experiment [3] (first compound 0.3162 µM). For the same cell line, in experiment [3] (first compound 1 µM), the relative viability was 0.594.

On to EKVX, for which the relative viability was found to be 0.915 in experiment [1] (first compound 0.01 µM); 0.647 in experiment [1] (first compound 0.1 µM); 0.608 in experiment [1] (first compound 0.3162 µM); 0.438 in experiment [1] (first compound 1 µM); 0.392 in experiment [2] (first compound 0.01 µM); 0.353 in experiment [2] (first compound 0.1 µM). The relative viability was determined as 0.317 in experiment [2] (first compound 0.3162 µM); 0.243 in experiment [2] (first compound 1 µM); 0.713 in experiment [3] (first compound 0.01 µM); 0.664 in experiment [3] (first compound 0.03162 µM); 0.6 in experiment [3] (first compound 0.1 µM); 0.575 in experiment [3] (first compound 0.3162 µM). Also, the relative viability was found to be 0.366 in experiment [3] (first compound 1 µM); 1.01 in experiment [4] (first compound 0.01 µM); 0.786 in experiment [4] (first compound 0.03162 µM); 0.722 in experiment [4] (first compound 0.1 µM); 0.781 in experiment [4] (first compound 0.3162 µM); 0.492 in experiment [4] (first compound 1 µM).

For the cell line EMC-BAC-2, the relative viability in experiment [1] (first compound 0.01 µM) turned out to be 0.511; in experiment [1] (first compound 0.03162 µM), 0.48; in experiment [1] (first compound 0.1 µM), 0.506; in experiment [1] (first compound 0.3162 µM), 0.51; in experiment [1] (first compound 1 µM) it was 0.448; in experiment [2] (first compound 0.01 µM), 0.449. Further, the relative viability amounted to 0.476 in experiment [2] (first compound 0.03162 µM); 0.427 in experiment [2] (first compound 0.1 µM); 0.417 in experiment [2] (first compound 0.3162 µM); 0.428 in experiment [2] (first compound 1 µM); 0.368 in experiment [3] (first compound 0.01 µM); 0.346 in experiment [3] (first compound 0.03162 µM). Also, the relative viability amounted to 0.29 in experiment [3] (first compound 0.1 µM); 0.318 in experiment [3] (first compound 0.3162 µM); 0.29 in experiment [3] (first compound 1 µM); 0.815 in experiment [4] (first compound 0.01 µM); 0.709 in experiment [4] (first compound 0.03162 µM); 0.712 in experiment [4] (first compound 0.1 µM). The relative viability in experiment [4] (first compound 0.3162 µM) came out at 0.651; in experiment [4] (first compound 1 µM), 0.594.

Regarding EPLC-272H, the relative viability in experiment [1] (first compound 0.01 µM) was 0.779; in experiment [1] (first compound 0.03162 µM), 0.807; in experiment [1] (first compound 0.1 µM), 0.681; in experiment [1] (first compound 0.3162 µM) it was 0.615; in experiment [1] (first compound 1 µM), 0.313; in experiment [2] (first compound 0.01 µM), 0.278. For the same cell line, the relative viability in experiment [2] (first compound 0.03162 µM) is 0.322; in experiment [2] (first compound 0.1 µM) it was 0.408; in experiment [2] (first compound 0.3162 µM), 0.539; in experiment [2] (first compound 1 µM) it was 0.512; in experiment [3] (first compound 0.01 µM), 0.293; in experiment [3] (first compound 0.1 µM), 0.257. For the same cell line, the relative viability in experiment [3] (first compound 0.3162 µM) amounted to 0.254; in experiment [3] (first compound 1 µM), 0.213; in experiment [4] (first compound 0.01 µM), 1.15; in experiment [4] (first compound 0.1 µM) it was 0.988; in experiment [4] (first compound 0.3162 µM), 0.999; in experiment [4] (first compound 1 µM), 0.716.

As for H3255, the relative viability is 0.646 in experiment [1] (first compound 0.01 µM); 0.547 in experiment [1] (first compound 0.03162 µM); 0.458 in experiment [1] (first compound 0.1 µM); 0.493 in experiment [1] (first compound 0.3162 µM); 0.373 in experiment [1] (first compound 1 µM); 0.602 in experiment [2] (first compound 0.01 µM). The relative viability in experiment [2] (first compound 0.03162 µM) is 0.59; in experiment [2] (first compound 0.1 µM), 0.576; in experiment [2] (first compound 0.3162 µM), 0.488; in experiment [2] (first compound 1 µM), 0.397; in experiment [3] (first compound 0.01 µM) it was 0.597; in experiment [3] (first compound 0.03162 µM), 0.49. Further, the relative viability in experiment [3] (first compound 0.1 µM) was 0.405; in experiment [3] (first compound 0.3162 µM), 0.469; in experiment [3] (first compound 1 µM), 0.382; in experiment [4] (first compound 0.01 µM) it was 1.16; in experiment [4] (first compound 0.03162 µM), 0.873; in experiment [4] (first compound 0.1 µM), 0.844. For the same cell line, the results for the relative viability in experiment [4] (first compound 0.3162 µM) and in experiment [4] (first compound 1 µM) were 0.775 and 0.514, respectively.

Consider HARA, for which the relative viability is 0.673 in experiment [1] (first compound 0.01 µM); 0.596 in experiment [1] (first compound 0.03162 µM); 0.524 in experiment [1] (first compound 0.1 µM); 0.852 in experiment [1] (first compound 0.3162 µM); 0.344 in experiment [1] (first compound 1 µM); 0.253 in experiment [2] (first compound 0.01 µM). The relative viability was found to be 0.265 in experiment [2] (first compound 0.03162 µM); 0.274 in experiment [2] (first compound 0.1 µM); 0.262 in experiment [2] (first compound 0.3162 µM); 0.212 in experiment [2] (first compound 1 µM); 0.509 in experiment [3] (first compound 0.01 µM); 0.272 in experiment [3] (first compound 0.1 µM). The relative viability in experiment [3] (first compound 0.3162 µM) was determined as 0.303; in experiment [3] (first compound 1 µM) it was 0.122; in experiment [4] (first compound 0.01 µM) it was 1.02; in experiment [4] (first compound 0.03162 µM) it was 0.78; in experiment [4] (first compound 0.1 µM), 0.83; in experiment [4] (first compound 0.3162 µM) it was 0.454. In experiment [4] (first compound 1 µM), the relative viability was 0.361.
